Measurements reported in the NIST ThermoML archive (doi:10.1007/s10765-009-0602-6).
Several values for one entry are separate records, joined by “and”; a condition that tells them apart may be missing. Identical values can stand only once.

Test: xn = mol fraction of the nth substance listed
Settings: Liquid, Other PVT measurement, x1 = 0.2607

N [ammonia] + O
Settings	mass density
508.07 K	671.23 kg/m3
519.77 K	649.65 kg/m3
545.62 K	594.32 kg/m3
561.03 K	552.58 kg/m3
565.36 K	540.25 kg/m3
580.18 K	476.26 kg/m3
584.95 K	456.58 kg/m3
585.31 K	120.03 kg/m3
594.14 K	147.43 kg/m3
595.16 K	376.89 kg/m3
597.36 K	160.07 kg/m3
597.56 K	342.19 kg/m3
598.33 K	329 kg/m3
598.96 K	320.33 kg/m3
599.42 K	312.91 kg/m3
599.57 K	311.19 kg/m3
599.67 K	310.95 kg/m3
599.78 K	308.35 kg/m3
599.89 K	307.35 kg/m3
600.02 K	305.44 kg/m3
600.17 K	303.47 kg/m3
600.29 K	301.94 kg/m3
600.48 K	299.79 kg/m3
600.63 K	297.6 kg/m3
600.81 K	295.31 kg/m3
600.93 K	292.97 kg/m3
601.05 K	291.16 kg/m3
601.16 K	188.05 kg/m3
601.34 K	285.71 kg/m3
601.75 K	195.99 kg/m3
602.05 K	271.09 kg/m3
602.26 K	206 kg/m3
602.45 K	260.02 kg/m3
602.74 K	214.83 kg/m3
602.85 K	218.92 kg/m3
602.91 K	243.98 kg/m3
602.96 K	230.31 kg/m3 and 224.53 kg/m3
602.97 K	227.54 kg/m3
